Experimental findings from patent publication US8785488B2 (Exelixis Patent Company LLC, priority 2009, dated 2014) are described below.

Each structure is given as a SMILES string.

For assay [1], the target named is T1, human TGR5 (h-TGR5) (Homo sapiens, UniProt Q8TDU6).
T1 construct: expressed in transfected cells
T1 sequence (Q8TDU6 1-330): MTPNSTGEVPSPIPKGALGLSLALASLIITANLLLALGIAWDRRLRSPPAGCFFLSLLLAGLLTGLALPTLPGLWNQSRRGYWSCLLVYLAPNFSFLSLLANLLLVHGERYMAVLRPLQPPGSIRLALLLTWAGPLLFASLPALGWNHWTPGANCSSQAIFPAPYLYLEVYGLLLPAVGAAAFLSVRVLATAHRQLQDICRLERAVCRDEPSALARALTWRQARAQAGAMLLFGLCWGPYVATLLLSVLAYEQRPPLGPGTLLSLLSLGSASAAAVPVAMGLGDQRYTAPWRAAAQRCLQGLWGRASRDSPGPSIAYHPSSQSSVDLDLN
Briefly: TGR5/CRE-Luciferiase Assay (HEK 293 hTGR5/CRE-Luc cells). Particulars: h-TGR5 CRE-Luc EC50, Table 1; read-out: CRE-Luc (EC50). The assay is classed as cell-based. A digest of the protocol: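 HEK293 cells stably carrying hTGR5 and a CRE-luciferase reporter were exposed to serially diluted compounds (diluted in DMEM with 5% DMSO) for 6 h. Cells were then lysed in luciferase buffer, luminescence was read, and EC50 values were derived from dose-response curves.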

Assay [2] has as its target T2, h-TGR5 (Homo sapiens, UniProt Q8TDU6).
T2 construct: expressed in transfected cells
T2 sequence (Q8TDU6 1-330): T1 sequence (Q8TDU6 1-330)
Briefly: TGR5 cAMP Assay using Cisbio cAMP Dynamic2 htrf kit (hTGR5CRE-luc HEK 293 cells). The format is cell-based. Conditions: h-TGR5 cAMP EC50, Table 1; read-out: cAMP (EC50). A digest of the protocol:
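[…], 4000 hTGR5CRE-luc HEK 293 cells per well, with 0.5 mM IBMX and d2-cAMP, were incubated 30 min at room temperature with compounds in 8-point half-log series, in quadruplicate.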

Usually EC50 stands for the concentration needed to bring the measured effect to its halfway point. With `CC(C)(c1ccc(Cl)c(Cl)c1)c1cnc(SCC2CCN(S(C)(=O)=O)CC2)n1-c1ccc(F)cc1` [4-[({5-[1-(3,4-dichlorophenyl)-1-methylethyl]-1-(4-fluorophenyl)-1H-imidazol-2-yl}thio)methyl]-1-(methylsulfonyl)piperidine], the EC50 in assay [1] is less than 100 nM; in assay [2], 100 to 1000 nM.

`COc1cc(C(C)(C)c2cnc(SCc3c(F)cc(OCCCNC(=N)N)cc3Cl)n2-c2ccc(F)cc2)ccc1Cl` [1-(3-{[3-chloro-4-({[5-{1-[4-chloro-3-(methyloxy)phenyl]-1-methylethyl}-1-(4-fluorophenyl)-1H-imidazol-2-yl]thio}methyl)-5-fluorophenyl]oxy}propyl)guanidine]: the concentration for a half-maximal effect (EC50) in assay [1] and in assay [2] was less than 100 nM in each case.

Take `COc1cc(C(C)(C)c2cnc(SCc3ccc(S(=O)(=O)NC(=O)NC(C)C)cc3Cl)n2-c2ccc(F)cc2)ccc1Cl` [3-chloro-4-({[5-{1-[4-chloro-3-(methyloxy)phenyl]-1-methylethyl}-1-(4-fluorophenyl)-1H-imidazol-2-yl]thio}methyl)-N-{[(1-methylethyl)amino]carbonyl} benzenesulfonamide]: the figures for the EC50 in assay [1] and in assay [2] were 100 to 1000 nM and less than 100 nM, respectively.

In the case of `COc1cc(C(C)(C)c2cnc(SCc3c(F)cc(OCCNC(=N)NC(=N)N)cc3F)n2-c2ccc(F)cc2)ccc1Cl` [N-(2-{[4-({[5-{1-[4-chloro-3-(methyloxy)phenyl]-1-methylethyl}-1-(4-fluorophenyl)-1H-imidazol-2-yl]thio}methyl)-3,5-difluorophenyl]oxy}ethyl)imido dicarbonimidic diamide], the half-maximal effective concentration (EC50) in assay [1] and in assay [2] was less than 100 nM each time.

On to `CCOC(=O)NS(=O)(=O)c1ccc(CSc2ncc(C(C)(C)c3ccc(Cl)c(OC)c3)n2-c2ccc(F)cc2)c(Cl)c1` [ethyl {[3-chloro-4-({[5-{1-[4-chloro-3-(methyloxy)phenyl]-1-methylethyl}-1-(4-fluorophenyl)-1H-imidazol-2-yl]thio}methyl)phenyl]sulfonyl}carbamate], for which the concentration for a half-maximal effect (EC50) in assay [1] and in assay [2] was less than 100 nM in each case.

In the case of `COc1cc(C(C)(C)c2cnc(SCc3ccc(CCCNC(=N)N)c(C(=O)O)c3)n2-c2ccc(F)cc2)ccc1Cl` [2-(3-{[amino(imino)methyl]amino}propyl)-5-({[5-{1-[4-chloro-3-(methyloxy)phenyl]-1-methylethyl}-1-(4-fluorophenyl)-1H-imidazol-2-yl]thio}methyl)benzoic acid], the 50% effective concentration (EC50) in assay [1] was less than 100 nM; in assay [2] it was 100 to 1000 nM.

Regarding `COc1ccc(C(C)(C)c2cnc(SCc3cc(-c4nnn[nH]4)c(Cl)cc3Cl)n2-c2ccc(F)cc2)cc1Cl` [5-[2,4-dichloro-5-({[5-{1-[3-chloro-4-(methyloxy)phenyl]-1-methylethyl}-1-(4-fluorophenyl)-1H-imidazol-2-yl]thio}methyl)phenyl]-1H-tetrazole], the values for the EC50 in assay [1] and in assay [2] were less than 100 nM and 100 to 1000 nM, respectively.

`CC(C)(c1ccc(F)c(F)c1)c1cnc(SCc2cc(C(=O)O)ccc2Cl)n1-c1ccc(F)cc1` [4-chloro-3-[({5-[1-(3,4-difluorophenyl)-1-methylethyl]-1-(4-fluorophenyl)-1H-imidazol-2-yl}thio)methyl]benzoic acid]: the concentration for a half-maximal effect (EC50) in assay [1] and in assay [2] was 100 to 1000 nM throughout.

For the molecule `CC(C)(c1ccc2ccccc2c1)c1cnc(SCc2c(F)cc(C(=O)O)cc2F)n1-c1ccc(F)cc1` [3,5-difluoro-4-({[1-(4-fluorophenyl)-5-(1-methyl-1-naphthalen-2-ylethyl)-1H-imidazol-2-yl]thio}methyl)benzoic acid], the EC50 in assay [1] and in assay [2] was 100 to 1000 nM in each case.

Consider `Cc1cc(-n2c(C(C)(C)c3ccc(Cl)c(Cl)c3)cnc2SCc2c(F)cc(C(=O)O)cc2F)ccc1F` [4-[({5-[1-(3,4-dichlorophenyl)-1-methylethyl]-1-(4-fluoro-3-methylphenyl)-1H-imidazol-2-yl}thio)methyl]-3,5-difluorobenzoic acid], for which the EC50 in assay [1] and in assay [2] was less than 100 nM throughout.

On to `COc1cc(C(C)(C)c2cnc(SCc3ccc(S(=O)(=O)NC(=O)NN4CCCC4)cc3F)n2-c2ccc(F)cc2)ccc1Cl` [4-({[5-{1-[4-chloro-3-(methyloxy)phenyl]-1-methylethyl}-1-(4-fluorophenyl)-1H-imidazol-2-yl]thio}methyl)-3-fluoro-N-[(pyrrolidin-1-ylamino)carbonyl]benzenesulfonamide], for which the values for the half-maximal effective concentration (EC50) in assay [1] and in assay [2] were less than 100 nM and 100 to 1000 nM, respectively.

Turning to `CC(C)(c1ccc(Cl)c(Cl)c1)c1cnc(SCc2ccc(F)cc2Cl)n1-c1ccc(F)c(CO)c1` [[5-(2-{[(2-chloro-4-fluorophenyl)methyl]thio}-5-[1-(3,4-dichlorophenyl)-1-methylethyl]-1H-imidazol-1-yl)-2-fluorophenyl]methanol], the EC50 in assay [1] and in assay [2] was 100 to 1000 nM each time.

In the case of `COc1cc(-n2c(C(C)(C)c3ccc(F)c(C#N)c3)cnc2SCc2c(F)cc(C(=O)O)cc2F)ccc1F` [4-[({5-[1-(3-cyano-4-fluorophenyl)-1-methylethyl]-1-[4-fluoro-3-(methyloxy)phenyl]-1H-imidazol-2-yl}thio)methyl]-3,5-difluorobenzoic acid], the EC50 in assay [1] and in assay [2] was less than 100 nM in each case.

Consider `CC(C)(c1ccc(CO)c(Cl)c1)c1cnc(SCc2ccc(F)cc2Cl)n1-c1ccc(F)cc1` [(2-chloro-4-{1-[2-{[(2-chloro-4-fluorophenyl)methyl]thio}-1-(4-fluorophenyl)-1H-imidazol-5-yl]-1-methylethyl}phenyl)methanol], for which the EC50 in assay [1] and in assay [2] was 100 to 1000 nM each time.

On to `COc1cc(C(C)(C)c2cnc(SCc3ccc(S(=O)(=O)NC(=O)NN4CCN(C)CC4)cc3Cl)n2-c2ccc(F)cc2)ccc1Cl` [3-chloro-4-({[5-{1-[4-chloro-3-(methyloxy)phenyl]-1-methylethyl}-1-(4-fluorophenyl)-1H-imidazol-2-yl]thio}methyl)-N-{[(4-methylpiperazin-1-yl)amino]carbonyl} benzenesulfonamide], for which the 50% effective concentration (EC50) in assay [1] and in assay [2] was 100 to 1000 nM each time.

In the case of `COc1cc(C(C)(C)c2cnc(SCc3ccc(C(=O)NCS(=O)(=O)O)cc3F)n2-c2ccc(F)cc2)ccc1Cl` [({[4-({[5-{1-[4-chloro-3-(methyloxy)phenyl]-1-methylethyl}-1-(4-fluorophenyl)-1H-imidazol-2-yl]thio}methyl)-3-fluorophenyl]carbonyl}amino)methanesulfonic acid], the concentration for a half-maximal effect (EC50) in assay [1] and in assay [2] was less than 100 nM in each case.

With `CC(C)(c1ccc(Cl)c(Cl)c1)c1cnc(SCc2ccc(S(N)(=O)=O)cc2F)n1-c1ccc(F)cc1` [4-[({5-[1-(3,4-dichlorophenyl)-1-methylethyl]-1-(4-fluorophenyl)-1H-imidazol-2-yl}thio)methyl]-3-fluorobenzenesulfonamide], the EC50 in assay [1] and in assay [2] was 100 to 1000 nM in each case.

Take `CC(C)(c1ccc(Cl)c(Cl)c1)c1cnc(SCc2ccc(F)c(C(=O)NCC(=O)O)c2)n1-c1ccc(F)cc1` [N-({5-[({5-[1-(3,4-dichlorophenyl)-1-methylethyl]-1-(4-fluorophenyl)-1H-imidazol-2-yl}thio)methyl]-2-fluorophenyl}carbonyl)glycine]: the half-maximal effective concentration (EC50) in assay [1] and in assay [2] was 100 to 1000 nM each time.
